In patent publication US7265120B2, “Pyrazine derivatives and pharmaceutical use thereof” (Astellas Pharma Inc., priority 2004, dated 2007):

melting point | SMILES
217 °C (dec.) | C#Cc1nc(-c2ccc(=O)n(C(C)C)n2)c(-c2ccccc2)nc1N [Example 76, 6-(5-amino-6-ethynyl-3-phenyl-2-pyrazinyl)-2-isopropyl-3(2H)-pyridazinone]
155 to 157 °C | Cn1nc(-c2nc(N3CCN(c4ccccc4)CC3)c(N)nc2-c2ccccc2)ccc1=O [Example 130, 6-[5-amino-3-phenyl-6-(4-phenyl-1-piperazinyl)-2-pyrazinyl]-2-methyl-3(2H)-pyridazinone]
238 to 240 °C | CC(C)n1nc(-c2nc(C#CC3(O)CCCCC3)c(N)nc2-c2ccccc2)ccc1=O [Example 73, 6-{5-amino-6-[(1-hydroxycyclohexyl)ethynyl]-3-phenyl-2-pyrazinyl}-2-isopropyl-3(2H)-pyridazinone]
157 to 159 °C | CC(C)n1nc(-c2nc(N3CCNCC3)c(N)nc2-c2ccccc2)ccc1=O [Example 112, 6-[5-amino-3-phenyl-6-(1-piperazinyl)-2-pyrazinyl]-2-isopropyl-3(2H)-pyridazinone]
136 to 137.5 °C | CC(C)n1nc(-c2nc(OCCN(C)C)c(N)nc2-c2ccccc2)ccc1=O [Example 170, 6-{5-amino-6-[2-(dimethylamino)ethoxy]-3-phenyl-2-pyrazinyl}-2-isopropyl-3(2H)-pyridazinone]
224 to 227 °C | Cn1nc(-c2nc(NCCc3ccccn3)c(N)nc2-c2ccccc2)ccc1=O [Example 127, 6-(5-amino-3-phenyl-6-{[2-(2-pyridyl)ethyl]amino}-2-pyrazinyl)-2-methyl-3(2H)-pyridazinone]
188.5 to 191.5 °C | COc1ccc(CNc2nc(-c3ccc(=O)n(C(C)C)n3)c(-c3ccccc3)nc2N)cc1 [Example 97, 6-{5-amino-6-[(4-methoxybenzyl)amino]-3-phenyl-2-pyrazinyl}-2-isopropyl-3(2H)-pyridazinone]
219 to 221 °C | CC(C)n1nc(-c2nc(NCC3CCCCC3)c(N)nc2-c2ccccc2)ccc1=O [Example 105, 6-{5-amino-6-[(cyclohexylmethyl)amino]-3-phenyl-2-pyrazinyl}-2-isopropyl-3(2H)-pyridazinone]
> 250 °C | CC(C)n1nc(-c2nc(C#N)c(C(N)=O)nc2-c2ccccc2)ccc1=O [Example 23, 3-Cyano-5-(1-isopropyl-6-oxo-1,6-dihydro-3-pyridazinyl)-6-phenyl-2-pyrazinecarboxamide]
> 250 °C | CC(C)n1nc(-c2nc(C(N)=S)c(N)nc2-c2ccccc2)ccc1=O [Example 26, 3-amino-6-(1-isopropyl-6-oxo-1,6-dihydro-3-pyridazinyl)-5-phenyl-2-pyrazinecarbothioamide]
220 to 222 °C | Cn1nc(-c2nc(Br)c(N)nc2-c2ccccc2)ccc1=O [Example 60, 6-(5-amino-6-bromo-3-phenyl-2-pyrazinyl)-2-methyl-3(2H)-pyridazinone]
> 250 °C | CC(C)n1nc(-c2nc(-n3ccnc3)c(N)nc2-c2ccccc2)ccc1=O [Example 150, 6-[5-amino-6-(1H-imidazol-1-yl)-3-phenyl-2-pyrazinyl]-2-isopropyl-3(2H)-pyridazinone]
186 to 188 °C | Cn1nc(-c2nc(-c3ccco3)c(N)nc2-c2ccccc2)ccc1=O [Example 89, 6-[5-amino-6-(2-furyl)-3-phenyl-2-pyrazinyl]-2-methyl-3(2H)-pyridazinone]
209 to 210.5 °C | Cn1nc(-c2nc([S+](C)[O-])c(N)nc2-c2ccccc2)ccc1=O (stereo not drawn) [Example 62, 6-[5-amino-6-(methylsulfinyl)-3-phenyl-2-pyrazinyl]-2-methyl-3(2H)-pyridazinone]
204 to 206 °C | CC(C)n1nc(-c2nc(Br)c(N)nc2-c2ccccc2)ccc1=O [Example 53, 6-(5-amino-6-bromo-3-phenyl-2-pyrazinyl)-2-isopropyl-3(2H)-pyridazinone]
210 to 212 °C | Cn1nc(-c2nc(C#N)c(C#N)nc2-c2ccccc2)ccc1=O [Example 15, 5-(1-Methyl-6-oxo-1,6-dihydro-3-pyridazinyl)-6-phenyl-2,3-pyrazinedicarbonitrile]
150 to 152 °C | CC(C)n1nc(-c2nc(N3CCC(N(C)C)C3)c(N)nc2-c2ccccc2)ccc1=O (stereo not drawn) [Example 109, 6-{5-amino-6-[3-(dimethylamino)-1-pyrrolidinyl]-3-phenyl-2-pyrazinyl}-2-isopropyl-3(2H)-pyridazinone]
88 to 91 °C | CC(C)n1nc(-c2nc(N3CCN(Cc4ccccn4)CC3)c(N)nc2-c2ccccc2)ccc1=O [Example 114, 6-{5-amino-3-phenyl-6-[4-(2-pyridylmethyl)-1-piperazinyl]-2-pyrazinyl}-2-isopropyl-3(2H)-pyridazinone]
222 to 224 °C | CC(C)n1nc(-c2nc(-c3ccncc3)c(N)nc2-c2ccccc2)ccc1=O [Example 82, 6-[5-amino-3-phenyl-6-(4-pyridyl)-2-pyrazinyl]-2-isopropyl-3(2H)-pyridazinone]
214 to 216.5 °C | CC(C)n1nc(-c2nc(NC3CCN(Cc4ccccc4)CC3)c(N)nc2-c2ccccc2)ccc1=O [Example 107, 6-{5-amino-6-[(1-benzyl-4-piperidinyl)amino]-3-phenyl-2-pyrazinyl}-2-isopropyl-3(2H)-pyridazinone]
190 to 194 °C | CC(C)n1nc(-c2ncc(N=S(C)C)nc2-c2ccccc2)ccc1=O [Example 65, 6-{5-[(dimethyl-lambda˜4˜-sulfanylidene)amino]-3-phenyl-2-pyrazinyl}-2-isopropyl-3(2H)-pyridazinone]
225 to 227 °C | CC(C)n1nc(-c2nc([S+](C)[O-])c(N)nc2-c2ccccc2)ccc1=O (stereo not drawn) [Example 55, 6-[5-amino-6-(methylsulfinyl)-3-phenyl-2-pyrazinyl]-2-isopropyl-3(2H)-pyridazinone]

Further lines, the compound ahead of its results:

SMILES | melting point
Cn1nc(-c2nc(NC3CCN(Cc4ccccc4)C3)c(N)nc2-c2ccccc2)ccc1=O (stereo not drawn) [Example 128, 6-{5-amino-6-[(1-benzyl-3-pyrrolidinyl)amino]-3-phenyl-2-pyrazinyl}-2-methyl-3(2H)-pyridazinone] | 183 to 185 °C
CSc1nc(-c2ccc(=O)n(C)n2)c(-c2ccccc2)nc1N [Example 61, 6-[5-amino-6-(methylthio)-3-phenyl-2-pyrazinyl]-2-methyl-3(2H)-pyridazinone] | 204 to 205.5 °C
CC(C)n1nc(-c2nc(C#N)c(N)nc2-c2ccccc2Br)ccc1=O [Example 188, 3-amino-5-(2-bromophenyl)-6-(1-isopropyl-6-oxo-1,6-dihydro-3-pyridazinyl)-2-pyrazinecarbonitrile] | 240 to 243 °C
CC(C)n1nc(-c2nc(-n3cccn3)c(N)nc2-c2ccccc2)ccc1=O [Example 149, 6-[5-amino-3-phenyl-6-(1H-pyrazol-1-yl)-2-pyrazinyl]-2-isopropyl-3(2H)-pyridazinone] | 210 to 212 °C
Cn1nc(-c2nc(NCc3ccccn3)c(N)nc2-c2ccccc2)ccc1=O [Example 146, 6-{5-amino-3-phenyl-6-[(2-pyridylmethyl)amino]-2-pyrazinyl}-2-methyl-3(2H)-pyridazinone] | > 250 °C
CC(C)n1nc(-c2nc(NC=O)c(C#N)nc2-c2ccccc2)ccc1=O [Example 25, [3-Cyano-6-(1-isopropyl-6-oxo-1,6-dihydro-3-pyridazinyl)-5-phenyl-2-pyrazinyl]formamide] | 206 to 208 °C
CC(C)n1nc(-c2nc(N3CCCC3)c(N)nc2-c2ccccc2)ccc1=O [Example 141, 6-[5-amino-3-phenyl-6-(1-pyrrolidinyl)-2-pyrazinyl]-2-isopropyl-3(2H)-pyridazinone] | 192 to 194.5 °C
CC(C)n1nc(-c2nc(C#Cc3ccccn3)c(N)nc2-c2ccccc2)ccc1=O [Example 74, 6-[5-amino-3-phenyl-6-(2-pyridylethynyl)-2-pyrazinyl]-2-isopropyl-3(2H)-pyridazinone] | 245.5 to 247 °C
CC(C)n1nc(-c2nc(NCCN(C)C)c(N)nc2-c2ccccc2)ccc1=O [Example 132, 6-(5-amino-6-{[2-(dimethylamino)ethyl]amino}-3-phenyl-2-pyrazinyl)-2-isopropyl-3(2H)-pyridazinone] | 188 to 189 °C
COCCOc1nc(-c2ccc(=O)n(C(C)C)n2)c(-c2ccccc2)nc1N [Example 166, 6-[5-amino-6-(2-methoxyethoxy)-3-phenyl-2-pyrazinyl]-2-isopropyl-3(2H)-pyridazinone] | 128 to 130 °C
COCCOc1nc(-c2ccc(=O)n(C)n2)c(-c2ccccc2)nc1N [Example 180, 6-[5-amino-6-(2-methoxyethoxy)-3-phenyl-2-pyrazinyl]-2-methyl-3(2H)-pyridazinone] | 139 to 141 °C
CCn1nc(-c2nc(C#N)c(NCc3ccc(OC)cc3)nc2-c2ccccc2)ccc1=O [Example 12, 6-(1-Ethyl-6-oxo-1,6-dihydro-3-pyridazinyl)-3-[(4-methoxybenzyl)amino]-5-phenyl-2-pyrazinecarbonitrile] | 165.5 to 167.5 °C
COc1nc(-c2ccccc2)c(-c2ccc(=O)n(C(C)C)n2)nc1C#N [Example 22, 6-(1-isopropyl-6-oxo-1,6-dihydro-3-pyridazinyl)-3-methoxy-5-phenyl-2-pyrazinecarbonitrile] | 170 to 172 °C
Cn1nc(-c2nc(OCCCc3ccccc3)c(N)nc2-c2ccccc2)ccc1=O [Example 183, 6-[5-amino-3-phenyl-6-(3-phenylpropoxy)-2-pyrazinyl]-2-methyl-3(2H)-pyridazinone] | 91 to 94 °C
Cn1nc(-c2nc(OCCN3CCOCC3)c(N)nc2-c2ccccc2)ccc1=O [Example 181, 6-{5-amino-6-[2-(4-morpholinyl)ethoxy]-3-phenyl-2-pyrazinyl}-2-methyl-3(2H)-pyridazinone] | 185 to 187 °C
Cn1nc(-c2nc(C#Cc3ccccc3)c(N)nc2-c2ccccc2)ccc1=O [Example 77, 6-[5-amino-3-phenyl-6-(phenylethynyl)-2-pyrazinyl]-2-methyl-3(2H)-pyridazinone] | 234 to 236 °C
CC(C)n1nc(-c2nc(C(N)=O)c(N)nc2-c2cccs2)ccc1=O [Example 191, 3-amino-6-(1-isopropyl-6-oxo-1,6-dihydro-3-pyridazinyl)-5-(2-thienyl)-2-pyrazinecarboxamide] | 238 to 240 °C
